According to the Kinase Knowledgebase extract (Sharma et al. 2016):

Target: PIK3CA (human) (UniProt P42336)
Test: Inhibition of PIK3CA Kinase Activity

Sequence of PIK3CA (human) (P42336 whole entry, looked up): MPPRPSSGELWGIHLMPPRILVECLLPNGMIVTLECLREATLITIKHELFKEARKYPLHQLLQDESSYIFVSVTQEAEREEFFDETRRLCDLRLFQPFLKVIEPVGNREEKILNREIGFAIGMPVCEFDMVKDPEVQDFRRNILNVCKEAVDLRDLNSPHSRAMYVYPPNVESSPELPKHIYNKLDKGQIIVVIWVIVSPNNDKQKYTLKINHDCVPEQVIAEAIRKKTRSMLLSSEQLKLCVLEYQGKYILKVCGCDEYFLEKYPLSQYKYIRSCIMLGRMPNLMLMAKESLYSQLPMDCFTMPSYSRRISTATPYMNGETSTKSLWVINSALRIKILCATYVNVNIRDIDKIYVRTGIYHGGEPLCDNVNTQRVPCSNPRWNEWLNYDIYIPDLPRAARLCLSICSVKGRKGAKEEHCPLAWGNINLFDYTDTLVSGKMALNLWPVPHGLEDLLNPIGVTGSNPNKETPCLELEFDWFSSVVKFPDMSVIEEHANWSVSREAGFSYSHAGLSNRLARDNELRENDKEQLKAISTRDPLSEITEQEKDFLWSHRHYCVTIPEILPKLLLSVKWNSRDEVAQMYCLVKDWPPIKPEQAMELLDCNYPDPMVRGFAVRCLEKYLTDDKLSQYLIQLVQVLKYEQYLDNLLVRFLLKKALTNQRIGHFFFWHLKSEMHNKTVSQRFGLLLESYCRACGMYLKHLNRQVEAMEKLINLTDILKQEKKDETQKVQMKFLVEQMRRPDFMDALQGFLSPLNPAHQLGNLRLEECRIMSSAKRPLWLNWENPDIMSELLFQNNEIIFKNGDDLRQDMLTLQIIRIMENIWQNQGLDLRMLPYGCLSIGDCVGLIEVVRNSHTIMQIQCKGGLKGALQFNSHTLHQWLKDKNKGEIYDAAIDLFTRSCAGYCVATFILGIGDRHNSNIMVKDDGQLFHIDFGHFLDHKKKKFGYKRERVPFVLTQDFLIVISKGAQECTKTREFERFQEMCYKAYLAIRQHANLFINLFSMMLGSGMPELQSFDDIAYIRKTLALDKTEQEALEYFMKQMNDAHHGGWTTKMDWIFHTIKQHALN

Row | SMILES | IC50 | IC80
1 | c1ccc(-n2ncc3c(N4CCOCC4)nc(-c4csc5ccccc45)nc32)cc1 | 10 µM | –
2 | CC(=O)Nc1ccc(-c2nc(N3CCOCC3)c3cnn(C4CCCCO4)c3n2)cc1 (centres undefined) | 1.65 µM | –
3 | O=C(O)c1cccc(-c2nc(N3CCOCC3)c3cnn(C4CCN(Cc5ccccc5)CC4)c3n2)c1 | 10 µM | –
4 | CN(C)c1cccc(-c2nc(N3CCOCC3)c3cnn(C4CCN(Cc5ccccc5)CC4)c3n2)c1 | 9.13 µM | –
5 | CN(C)C(=O)c1ccc(-c2nc(N3CCOCC3)c3cnn(C4CCN(Cc5ccccc5)CC4)c3n2)cc1 | 10 µM | –
6 | c1ccc(CN2CCC(n3ncc4c(N5CCOCC5)nc(-c5ccc(-c6ccccc6)cc5)nc43)CC2)cc1 | 8.57 µM | –
7 | c1cc2cc(-c3nc(N4CCOCC4)c4cnn([C@H]5CCCNC5)c4n3)ccc2[nH]1 | 10 µM | –
8 | CNC(=O)Nc1ccc(-c2nc(N3CCOCC3)c3cnn(C4CCN(COC)CC4)c3n2)cc1 | 1.56 µM | –
9 | c1ccc(CN2CCC(n3ncc4c(N5CCOCC5)nc(-c5cccc6ccccc56)nc43)CC2)cc1 | 10 µM | –
10 | c1ccc(CN2CCC(n3ncc4c(N5CCOCC5)nc(-c5cccc6c5sc5ccccc56)nc43)CC2)cc1 | 8.77 µM | –
11 | CCOC(=O)Nc1ccc(-c2nc(N3CCOCC3)c3cnn(C4CCN(C(=O)OCC)CC4)c3n2)cc1 | 6.72 µM | –
12 | c1cc2cc(-c3nc(N4CCOCC4)c4cnn([C@@H]5CCCNC5)c4n3)ccc2[nH]1 | 10 µM | –
13 | Clc1ccccc1CN1CCC(n2ncc3c(N4CCOCC4)nc(-c4ccc5[nH]ccc5c4)nc32)CC1 | 1.7 µM | –
14 | O=C(c1cccc(C(F)(F)F)c1)N1CCC(n2ncc3c(N4CCOCC4)nc(-c4ccc5[nH]ccc5c4)nc32)CC1 | 1.43 µM | –
15 | NC(=O)Nc1ccc(-c2nc(N3CCOCC3)c3cnn(C4CCN(C(=O)c5ccccc5)CC4)c3n2)cc1 | – | 0.084 µM
16 | COC(=O)Nc1ccc(-c2nc(N3CCOCC3)c3cnn(C4CCN(Cc5ccc(F)nc5)CC4)c3n2)cc1 | 1.2 µM | –
17 | c1ccc(CN2CCC(n3ncc4c(N5CCOCC5)nc(-c5cccc(-c6ccccc6)c5)nc43)CC2)cc1 | 10 µM | –
18 | Nc1ccc(-c2nc(N3CCOCC3)c3cn[nH]c3n2)cc1 | 1.61 µM | –
19 | c1ccc(CN2CCC(n3ncc4c(N5CCOCC5)nc(-c5ccc6ccccc6c5)nc43)CC2)cc1 | 8.2 µM | –
20 | O=C(c1ccc(F)cc1)N1CCC(n2ncc3c(N4CCOCC4)nc(-c4ccc5[nH]ccc5c4)nc32)CC1 | 1.75 µM | –

Further lines, results first:

Row | IC50 | IC80 | SMILES
21 | 0.44 µM | – | c1ccc(-n2ncc3c(N4CCOCC4)nc(-c4cncnc4)nc32)cc1
22 | 0.014 µM | – | CNC(=O)Nc1ccc(-c2nc(N3CCOCC3)c3cn[nH]c3n2)cc1
23 | 0.066 µM | – | CNC(=O)Nc1ccc(-c2nc(N3CCOCC3)c3cnn(C4CCN(C(N)=O)CC4)c3n2)cc1
24 | 0.032 µM | – | CC(C)(C)OC(=O)N1CCC(n2ncc3c(N4CCOCC4)nc(-c4ccc(NC(=O)Nc5cccnc5)cc4)nc32)CC1
25 | 0.357 µM | – | NC(=O)Cc1cccc(-c2nc(N3CCOCC3)c3cnn(-c4ccccc4)c3n2)c1
26 | 0.08 µM | – | CNC(=O)Nc1ccc(-c2nc(N3CCOCC3)c3cnn(C4=CC[S+]([O-])CC4)c3n2)cc1 (centres undefined)
27 | 0.999 µM | – | COC(=O)Nc1ccc(-c2nc(N3CCOCC3)c3cnn(C4CCN(C(=O)c5ccc(C#N)cc5)CC4)c3n2)cc1
28 | 0.48 µM | – | CN(C)C(=O)C=CCN1CCC(n2ncc3c(N4CCOCC4)nc(-c4ccc5[nH]ccc5c4)nc32)CC1
29 | 0.074 µM | – | CNC(=O)Nc1ccc(-c2nc(N3CCOCC3)c3cnn(C4=CCS(=O)(=O)CC4)c3n2)cc1
